Source: publication PMC3077032 (Clinical cancer research : an official journal of the …, 2011)
Like-named read-outs stand apart in the source and are kept apart here.

How the values were obtained:
clinical = conditions: human, plasma (sorafenib); sample for sirolimus not named, oral
CYP3A4 = conditions: cited from earlier work
[1] = for AUC, median relative difference (range) after initiation of combination therapy / Cmax, median relative difference (range) after initiation of combination therapy: combination with the interacting drug vs drug alone, n=6; for Ka, population estimate: one-compartment NONMEM model, n = 6 per drug
[2] = in vivo
[3] = day 28 combination vs day 14 alone
[4] = cited from earlier work
[5] = daily oral dosing, phase I trial in cancer patients

Row | Cmax, median relative difference (range) after initiation of combination therapy ([1]; listed as Sorafenib) | AUC, median relative difference (range) after initiation of combination therapy [2] | Cmax, median relative difference (range) after initiation of combination therapy ([3]; listed as Sunitinib) | SMILES | Vd/F (clinical) [L] | Effect of inhibitors of CYP3A4 on pharmacokinetics (CYP3A4) | AUC, median relative difference (range) after initiation of combination therapy [1] | Cmax, median relative difference (range) after initiation of combination therapy [1] [%] | Ka, population estimate [1] [h⁻¹] | AUC, median relative difference (range) after initiation of combination therapy [3] | Cmax, median relative difference (range) after initiation of combination therapy [3] [%] | Cmax, median relative difference (range) after initiation of combination therapy ([3]; listed as Sirolimus) | Dose well tolerated [4, 5] [mg] | Maximum tolerated dose [4, 5] [mg] | Dose administered without dose limiting toxicity ([4]; weekly dosing, ongoing study at the University of Chicago) [mg] | Cmax, median relative difference (range) after initiation of combination therapy ([1]; listed as Sirolimus)
1 | −40.7 (−87.0, 351.2) % | – | – | CNC(=O)c1cc(Oc2ccc(NC(=O)Nc3ccc(Cl)c(C(F)(F)F)c3)cc2)ccn1 [sorafenib, Sorafenib] | 807 | only modestly affected | 6.1 (−17.3, 22.0) % | −40.7 | 1.07 | – | – | – | – | – | – | –
2 | – | 61.6 (−79.7, 1031.2) % | – | CCNCCNC(=O)c1c(C)[nH]c(/C=C2\C(=O)Nc3ccc(F)cc32)c1C [SU12662] | – | – | – | – | – | – | – | – | – | – | – | –
3 | – | – | – | CO[C@H]1C[C@@H]2CC[C@@H](C)[C@@](O)(O2)C(=O)C(=O)N2CCCC[C@H]2C(=O)O[C@H]([C@H](C)C[C@@H]2CC[C@@H](O)[C@H](OC)C2)CC(=O)[C@H](C)/C=C(\C)[C@@H](O)[C@@H](OC)C(=O)[C@H](C)C[C@H](C)/C=C/C=C/C=C/1C [sirolimus, Sirolimus] | 138 | – | 43.7 (10.5, 84.7) % | 3.9 | 2.01 | −47.7 (−75.4, 1394.8) % | −29.8 | −29.8 (−77.4, 28.8) % | 3 | 6 | 90 | 3.9 (1.3, 11.0) %
4 | – | – | 19.6 (−23.5, 45.4) % | CCN(CC)CCNC(=O)c1c(C)[nH]c(/C=C2\C(=O)Nc3ccc(F)cc32)c1C [sunitinib, Sunitinib] | – | only modestly affected | – | – | – | 54.3 (−34.3, 232.8) % | 19.6 | – | – | – | – | –
